Measured values taken from US20260098026A1, “M4 ACTIVATORS/MODULATORS AND USES THEREOF” (Cerevel Therapeutics, LLC, priority 2022, published 2026).

Tests used:
M4 mAChR = target: T1, M4 mAChR (Homo sapiens, UniProt P08173); experiment: cAMP TR-FRET assay with forskolin, M4-overexpressing CHO-K1 cells; format: cell-based
T1 construct: expressed in transfected cells; host or cells: CHO-K1
T1 sequence (P08173 1-479): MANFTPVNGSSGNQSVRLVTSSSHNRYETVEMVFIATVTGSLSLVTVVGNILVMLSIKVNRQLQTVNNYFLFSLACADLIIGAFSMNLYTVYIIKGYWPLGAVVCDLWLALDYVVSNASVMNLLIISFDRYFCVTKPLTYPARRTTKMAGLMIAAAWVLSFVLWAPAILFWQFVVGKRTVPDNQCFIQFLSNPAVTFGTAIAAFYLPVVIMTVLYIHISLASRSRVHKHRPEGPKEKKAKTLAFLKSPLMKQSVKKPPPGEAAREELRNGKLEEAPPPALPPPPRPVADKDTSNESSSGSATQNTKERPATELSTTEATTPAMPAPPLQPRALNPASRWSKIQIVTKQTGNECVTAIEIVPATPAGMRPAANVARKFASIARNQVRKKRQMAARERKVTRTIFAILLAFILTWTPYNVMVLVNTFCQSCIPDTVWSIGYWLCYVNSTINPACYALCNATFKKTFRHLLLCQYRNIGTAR
Excerpt: The M2 and M4 mACh receptors are Gi-coupled receptors which, upon activation, produce a decrease in cAMP. Assays were developed that measured the potency and efficacy of compounds at the M2 or M4 mAChR using M2- or M4-overexpressing CHO-K1 cell lines. Time-resolved fluorescence resonance energy transfer (TR-FRET) technology was used, where signal occurs as a result of transfer of energy if the donor molecule is in close proximity to an acceptor molecule when the molecules have bound to the molecule of interest. The cAMP detection is a competition binding assay, where cAMP produced by cells competes for binding with the labeled donor molecule to the anti-cAMP acceptor antibody. Due to the low basal levels of cAMP in the CHO-K1 cell line, forskolin was used to increase cAMP levels to enable assessment of agonist activity at the mAChR of interest.

[1] = target: T2, M3 muscarinic acetylcholine receptor (mAChR) (Homo sapiens, UniProt P20309); experiment: FLIPR calcium assay (Fluo 8), M3-overexpressing CHO-K1 cells; format: cell-based
T2 construct: expressed in transfected cells; host or cells: CHO-K1
T2 sequence (P20309 whole entry): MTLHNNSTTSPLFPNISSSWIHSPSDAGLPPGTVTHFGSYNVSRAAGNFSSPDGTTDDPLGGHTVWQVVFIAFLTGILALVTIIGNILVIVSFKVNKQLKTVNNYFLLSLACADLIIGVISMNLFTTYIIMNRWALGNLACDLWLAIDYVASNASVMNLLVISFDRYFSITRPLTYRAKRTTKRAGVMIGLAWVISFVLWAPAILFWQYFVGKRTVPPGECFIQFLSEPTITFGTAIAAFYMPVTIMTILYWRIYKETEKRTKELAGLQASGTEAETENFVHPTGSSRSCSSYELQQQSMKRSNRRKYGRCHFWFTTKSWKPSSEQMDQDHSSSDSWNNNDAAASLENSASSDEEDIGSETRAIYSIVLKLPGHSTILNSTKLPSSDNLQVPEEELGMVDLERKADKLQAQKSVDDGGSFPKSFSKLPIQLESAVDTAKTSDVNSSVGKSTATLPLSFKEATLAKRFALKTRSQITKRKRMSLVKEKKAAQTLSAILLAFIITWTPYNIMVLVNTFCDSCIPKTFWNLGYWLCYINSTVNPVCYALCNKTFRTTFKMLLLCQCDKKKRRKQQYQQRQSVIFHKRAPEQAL
Protocol: Stimulation of a Gq-coupled G-protein coupled receptors (GPCRs), result in an efflux of calcium from the endoplasmic reticulum to the cytoplasm (Berridge, 1993), thus rendering this assay appropriate for the assessment of M1, M3 and M5 receptors. CHO-K1 cells overexpressing the M1, M3, or M5 muscarinic acetylcholine receptor (mAChR) were dispensed at 15,000 cells per well in 30 μl volume to 384-well plates and grown overnight at 37° C. in a 5% CO2 atmosphere. Fluo-8 Solution, 10 μl per well, was added to each well and incubated for 30 minutes at 37° C. in a 5% CO2 atmosphere. Compounds diluted in Hanks' balanced salt solution (HBSS) were transferred to the cell assay plate at 10 μl per well, and then read on a FLIPR instrument. EC50 and Emax figures were calculated from the resulting data for each receptor subtype.

Row | Emax (M4 mAChR; cAMP assay) [%] | Structure (SMILES) | further results
1 | 80 to 100 | CCOC(=O)N1CC2(CC[C@@H](N3CCN(c4cc(F)cnc4-c4c[nH]c(=O)[nH]c4=O)CC3)C2)C1 [Compound A211] | –
2 | 80 to 100 | CCOC(=O)N1CC2(CC[C@@H](N3CCN(c4cc(Cl)cnc4-c4cscn4)CC3)C2)C1 [Compound A212] | –
3 | 80 to 100 | CCOC(=O)N1CC2(CC[C@@H](N3CCN(c4cc(F)cnc4-c4ccns4)CC3)C2)C1 [Compound A213] | –
4 | 80 to 100 | CCOC(=O)N1CC2(CC[C@@H](N3CCN(c4cc(F)cnc4-c4cnsc4)CC3)C2)C1 [Compound A214] | –
5 | 80 to 100 | CCOC(=O)N1CC2(CC[C@@H](N3CCN(c4cc(F)cnc4-c4nncs4)CC3)C2)C1 [Compound A236] | –
6 | 19 to 49.9 | CCOC(=O)N1CC2(CC[C@@H](N3CCN(c4cc(F)cnc4-c4nccnc4OC)CC3)C2)C1 [Compound A238] | –
7 | 80 to 100 | CCOC(=O)N1CC2(CC[C@@H](N3CCN(c4cc(Cl)cnc4-c4cnc(C)cn4)CC3)C2)C1 [Compound A239] | –
8 | 80 to 100 | CCOC(=O)N1CC2(CC[C@@H](N3CCN(c4cc(F)cnc4-c4ncc(F)cc4F)CC3)C2)C1 [Compound A240] | –
9 | 50 to 79.9 | CCOC(=O)N1CC2(CC[C@@H](N3CCN(c4cc(F)cnc4-c4ccc(C)nn4)CC3)C2)C1 [Compound A241] | –
10 | 80 to 100 | CCOC(=O)N1CC2(CC[C@@H](N3CCN(c4cc(F)cnc4-c4cccnn4)CC3)C2)C1 [Compound A242] | –
11 | 80 to 100 | CCOC(=O)N1CC2(CC[C@@H](N3CCN(c4cc(F)cnc4-n4cnnc4)CC3)C2)C1 [Compound A260] | –
12 | 80 to 100 | CCOC(=O)N1CC2(CC[C@@H](N3CCN(c4cc(Cl)cnc4-n4nccn4)CC3)C2)C1 [Compound A262] | –
13 | 80 to 100 | CCOC(=O)N1CC2(CC[C@@H](N3CCN(c4cc(Cl)cnc4Br)CC3)C2)C1 [Compound A263] | –
14 | 80 to 100 | CCOC(=O)N1CC2(CC[C@@H](N3CCN(c4cccnc4-c4nncs4)CC3)C2)C1 [Compound A264] | –
15 | 80 to 100 | CCOC(=O)N1CC2(CC[C@@H](N3CCN(c4cc(F)cnc4-c4ncc(C)s4)CC3)C2)C1 [Compound A266] | –
16 | 50 to 79.9 | CCOC(=O)N1CC2(CC[C@@H](N3CCN(c4cc(F)cnc4-c4nc(C)cs4)CC3)C2)C1 [Compound A267] | –
17 | 80 to 100 | CCOC(=O)N1CC2(CC[C@@H](N3CCN(c4cc(Cl)cnc4-c4ncccc4F)CC3)C2)C1 [Compound A268] | –
18 | 80 to 100 | CCOC(=O)N1CC2(CC[C@@H](N3CCN(c4cc(Cl)cnc4-c4ncccc4Cl)CC3)C2)C1 [Compound A269] | –
19 | 80 to 100 | CCOC(=O)N1CC2(CC[C@@H](N3CCN(c4cc(F)cnc4-c4ccsn4)CC3)C2)C1 [Compound A270] | –
20 | 80 to 100 | CCOC(=O)N1CC2(CC[C@@H](N3CCN(c4cc(Cl)cnc4-c4cnc(C)nc4)CC3)C2)C1 [Compound A271] | –
21 | 80 to 100 | CCOC(=O)N1CC2(CC[C@@H](N3CCN(c4cc(F)cnc4-c4nccs4)CC3)C2)C1 [Compound A286] | –
22 | 80 to 100 | CCOC(=O)N1CC2(CC[C@@H](N3CCN(c4cc(F)cnc4-c4ncccc4Cl)CC3)C2)C1 [Compound A287] | –

The remaining lines, values behind:

Row | Structure (SMILES) | Emax (M4 mAChR; cAMP assay) [%] | further results
23 | CCOC(=O)N1CC2(CC[C@@H](N3CCC(c4cc(F)cnc4-c4cnccn4)CC3)C2)C1 (single isomer, unassigned) [Compound A11] | – | Emax (M4 mAChR; cAMP TR-FRET with forskolin): 80 to 100%
24 | CCOC(=O)N1CC2(CC[C@H](N3CCC(c4cc(F)cnc4-c4cnccn4)CC3)C2)C1 (single isomer, unassigned) [Compound A12] | – | Emax (M4 mAChR; cAMP TR-FRET with forskolin): 80 to 100%
25 | CCOC(=O)N1CC2(CC[C@@H](N3CCC(O)(c4cc(F)cnc4-c4cnccn4)CC3)C2)C1 (single isomer, unassigned) [Compound A14] | – | Emax (M4 mAChR; cAMP TR-FRET with forskolin): 80 to 100%
26 | CCOC(=O)N1CC2(CC[C@H](N3CCN(c4cc(Cl)cnc4C4CCOCC4)CC3)C2)C1 (single isomer, unassigned) [Compound A16] | – | EC50 ([1]; FLIPR calcium): > 10 µM
27 | CCOC(=O)N1CC2(CC[C@@H](N3CCN(c4cc(F)cnc4C4(F)CCOCC4)CC3)C2)C1 (single isomer, unassigned) [Compound A19] | – | Emax (M4 mAChR; cAMP TR-FRET with forskolin): 80 to 100%
28 | CCOC(=O)N1CC2(CC[C@H](N3CCC(c4cc(F)cnc4-c4nncs4)CC3)C2)C1 (single isomer, unassigned) [Compound A21] | – | Emax (M4 mAChR; cAMP TR-FRET with forskolin): 80 to 100%
29 | CCOC(=O)N1CC2(CC[C@@H](N3CCC(c4cc(F)cnc4-c4nncs4)CC3)C2)C1 (single isomer, unassigned) [Compound A22] | – | Emax (M4 mAChR; cAMP TR-FRET with forskolin): 80 to 100%
30 | CCOC(=O)N1CC2(CC[C@@H](N3CCC(c4cc(F)cnc4-n4cc(C)nn4)CC3)C2)C1 (single isomer, unassigned) [Compound A23] | – | Emax (M4 mAChR; cAMP TR-FRET with forskolin): 80 to 100%
31 | CCOC(=O)N1CC2(CC[C@H](N3CCC(c4cc(F)cnc4-n4cc(C)nn4)CC3)C2)C1 (single isomer, unassigned) [Compound A24] | – | Emax (M4 mAChR; cAMP TR-FRET with forskolin): 80 to 100%
32 | CCOC(=O)N1CC2(CC(N3[C@@H]4CC[C@H]3CN(c3cc(F)cnc3-c3cnccn3)C4)CS2)C1 (single isomer, unassigned) [Compound A220] | – | EC50 ([1]; FLIPR): > 10 µM
33 | CCOC(=O)N1CC2(CCC(N3[C@@H]4CC[C@H]3CN(c3cc(F)cnc3-c3cnccn3)C4)C2)C1 (single isomer, unassigned) [Compound A222] | – | EC50 ([1]; FLIPR): > 10 µM
34 | CCOC(=O)N1CC2(CC[C@@H](N3CCN(c4cc(F)cnc4C4CCOC4)CC3)C2)C1 (single isomer, unassigned) [Compound A281] | 80 to 100 | –
35 | CCOC(=O)N1CC2(CCC(N3CCN(c4cccnc4N4CCC4)CC3)C2)C1 (stereo not shown) [Compound A4, ethyl 6-(4-(2-(azetidin-1-yl)pyridin-3-yl)piperazin-1-yl)-2-azaspiro[3.4]octane-2-carboxylate] | – | Emax (M4 mAChR; cAMP TR-FRET with forskolin): 80 to 100%
36 | CCOC(=O)N1CC2(CC[C@@H](N3CCN(c4cccnc4OC4CCC4)CC3)C2)C1 [Compound A5, (R)-ethyl 6-(4-(2-cyclobutoxypyridin-3-yl)piperazin-1-yl)-2-azaspiro[3.4]octane-2-carboxylate] | – | EC50 ([1]; FLIPR calcium): > 10 µM
37 | CCOC(=O)N1CC2(CC[C@@H](N3CCN(c4cc(F)cnc4-c4cscn4)CC3)C2)C1 [Compound A8, ethyl (6R)-6-[4-(5-fluoro-2-thiazol-4-yl-3-pyridyl)piperazin-1-yl]-2-azaspiro[3.4]octane-2-carboxylate] | – | Emax (M4 mAChR; cAMP TR-FRET with forskolin): 80 to 100%
38 | CCOC(=O)N1CC2(CC[C@@H](N3CCN(c4cccnc4-c4cncc(C#N)c4)CC3)C2)C1 [Compound A27] | – | EC50 ([1]; FLIPR calcium): > 10 µM
39 | CCOC(=O)N1CC2(CC[C@@H](N3CCN(c4cccnc4-c4cncc(OC(F)F)c4)CC3)C2)C1 [Compound A28] | – | Emax (M4 mAChR; cAMP TR-FRET with forskolin): 80 to 100%
40 | CCOC(=O)N1CC2(CC[C@@H](N3CCN(c4cc(F)cnc4-c4cccc5cn(C)nc45)CC3)C2)C1 [Compound A66] | – | EC50 ([1]; FLIPR calcium): > 10 µM
41 | CCOC(=O)N1CC2(CC[C@@H](N3CCN(c4cc(F)cnc4-c4ccc(=O)n(C(C)C)c4)CC3)C2)C1 [Compound A149] | – | EC50 ([1]; FLIPR): > 10 µM
42 | CCOC(=O)N1CC2(CC[C@@H](N3CCN(c4cc(F)cnc4-c4ccccc4C(=O)NC)CC3)C2)C1 [Compound A151] | – | EC50 ([1]; FLIPR): > 10 µM
43 | CCOC(=O)N1CC2(CC[C@@H](N3CCN(c4cc(F)cnc4-c4ccn(COCC[Si](C)(C)C)n4)CC3)C2)C1 [Compound A196] | – | EC50 ([1]; FLIPR): > 10 µM
44 | CCOC(=O)N1CC2(CCC(N3CCN(c4cc(F)cnc4-c4cnccn4)CC3)CC2)C1 [Compound A224] | – | EC50 ([1]; FLIPR): > 10 µM
45 | CCOC(=O)N1CC2(C[C@H](N3CCN(c4cc(F)cnc4-c4cnccn4)CC3)CS2)C1 [Compound A225] | – | EC50 ([1]; FLIPR): > 10 µM
46 | CCOC(=O)N1CC2(CC[C@@H](N3CCN(c4cc(F)cnc4-c4cc(F)cnc4F)CC3)C2)C1 [Compound A232] | – | EC50 ([1]; FLIPR): > 10 µM
47 | CCOC(=O)N1CC2(C[C@H](N3CCN(c4cccnc4-c4nncs4)CC3)CO2)C1 [Compound A237] | – | EC50 ([1]; FLIPR): > 10 µM
48 | CCOC(=O)N1CC2(CC[C@@H](N3CCN(c4cc(Cl)cnc4-c4ccnc(C)n4)CC3)C2)C1 [Compound A248] | – | EC50 ([1]; FLIPR): > 10 µM
49 | CCOC(=O)N1CC2(CC[C@@H](N3CCN(c4cc(F)cnc4OC4(C)CCOCC4)CC3)C2)C1 [Compound A261] | 80 to 100 | –
50 | CCOC(=O)N1CC2(CC[C@@H](N3CCN(c4cc(F)cnc4C4CCC(F)(F)CC4)CC3)C2)C1 [Compound A275] | 80 to 100 | –
51 | CCOC(=O)N1CC2(CC[C@@H](N3CCN(c4cc(F)cnc4C4CC5(COC5)C4)CC3)C2)C1 [Compound A277] | 80 to 100 | –
52 | CCOC(=O)N1CC2(CC[C@@H](N3CCN(c4cccnc4C4CCOCC4)CC3)C2)C1 [Compound A278] | 80 to 100 | –
